In patent US20240122853A1, “COMPOSITION FOR PENETRATING BLOOD-BRAIN BARRIER, CONTAINING SONOSENSITIVE LIPOSOMES AS ACTIVE INGREDIENTS” (IMGT CO, LTD., priority 2021, published 2024):

Assay: Evans blue penetration after blood-brain barrier opening by ultrasound and microbubbles
Format: in vivo, BALB/c nude mice
Method: To derive the optimal ultrasound conditions for opening the blood-brain barrier (BBB), the degree of opening of the blood-brain barrier was compared and analyzed using Evans blue. Evans blue is a very small dye with a molecular weight of 961 Da and is widely used for analyzing the degree of opening of the blood-brain barrier. The experiment was performed using normal BALB/c nude mice, and after injecting microbubbles via intravenous injection, ultrasound was emitted using a high-intensity focused ultrasound device, VIFU2000. […] The brain tissue was soaked in formamide, incubated overnight at 70° C. to extract Evans blue in the brain tissue, and the degree of opening of the blood-brain barrier was quantitatively analyzed by measuring the absorbance at wavelengths of 670 nm and 740 nm using UV-vis.
Factors that can affect the cavitation of ultrasound and microbubbles, a mechanism that opens the blood-brain barrier, include ultrasound conditions such as the frequency, intensity, duty cycle, and ultrasound emission time of the ultrasound, and also the number of microbubbles. Therefore, to confirm the ultrasound conditions and the number of microbubbles that can open the blood-brain barrier, the degree of opening of the blood-brain barrier according to the number of microbubbles was first quantitatively analyzed. […]

Cc1cc(-c2ccc(/N=N/c3ccc4c(S(=O)(=O)O)cc(S(=O)(=O)O)c(N)c4c3O)c(C)c2)ccc1/N=N/c1ccc2c(S(=O)(=O)O)cc(S(=O)(=O)O)c(N)c2c1O [Evans blue]
Penetration efficiency into brain depending on number of microbubbles (1 MHz, 1 W, DC 5%, PRF 1 Hz, 60 s, 2, 5, 10 × 10^6/g microbubbles, brain 24 hours later): improving the penetration efficiency of Evans blue
Penetration effect into brain depending on ultrasound intensity and emission time (microbubbles 5×10^6/g, 1-3 W, duty cycle 1-10%, 60-180 s): increased proportionally
